Results from patent publication US9023789B2, “Amylin analogs and pharmaceutical compositions thereof” (Novo Nordisk A/S, priority 2012, dated 2015).
Read-outs that look alike come from different tables or passages of the source. Numbered stars: 1 amine (or outer) side, 2 acyl side, 3 side chain; on linkers, the order of the positions; unused ones are H or OH. Bridge positions count the residues as written; N and C are the ends. Side chains are listed from the residue outwards. Peptide text beside a SMILES is read from it. * marks the point of attachment. C20 diacid = O=C(O)CCCCCCCCCCCCCCCCCCC(=O)*; γGlu = O=C(O)[C@H](CCC(=O)[*:2])N[*:1]; AEEA = NCCOCCOCC(=O)O

Tests used:
Male Sprague-Dawley rats = experiment: ASSAY (XI) single subcutaneous administration, food intake monitored for 48 hours in rats; assay type: in vivo, rat; conditions: 30 nmol/kg; for Food intake red (%) 0-24 h / Food intake red (%) 24-48 h: single s.c., compared to vehicle
Text: Assay (XI)—Effect from Single Subcutaneous Administration of Analogue on Plasma Calcium in Rats
Male Sprague-Dawley rats (Taconic Europe, ˜250 g at test date) were acclimatized to reversed day light cycle (lights on from 10 PM to 10 AM) and single housing in online food intake monitoring system (Ellegaard MBRose, Denmark) prior to study start. […] Data are illustrated in graphs as mean±SEM.

Male Wistar rats = experiment: ASSAY (XII) effect from single subcutaneous administration on plasma calcium in rats; assay type: in vivo, rat; conditions: for Plasma calcium red (%) 0-12 h (maximal): single s.c., compared to vehicle; for suppression of plasma calcium level relative to vehicle: single subcutaneous 30 nmol/kg, monitored over 24 hours
Experimental: Assay (XII)—Effect from Single Subcutaneous Administration of Analogue on Plasma Calcium in Rats
Male Wistar rats (Taconic Europe, ˜250 g at test date) were acclimatized to handling prior to the study. Rats were divided in groups of five and subcutaneously dosed with test compound at time=0. At time T=−15 min; 1 h, 2 h, 4 h, 7 h, 12 h, and 24 h a blood sample was obtained and heparin stabilized plasma was analysed for total calcium (Cobas, Hitachi). Data are illustrated in graphs as mean±SEM.

[1] = molecular target: T1, human calcitonin (a) receptor in BHK570 cells (Homo sapiens, UniProt P30988); experiment: ASSAY (II)a functional assay, human calcitonin receptor (CRE luciferase); assay type: cell-based
T1 construct: expressed in transfected cells
T1 sequence (P30988 25-474): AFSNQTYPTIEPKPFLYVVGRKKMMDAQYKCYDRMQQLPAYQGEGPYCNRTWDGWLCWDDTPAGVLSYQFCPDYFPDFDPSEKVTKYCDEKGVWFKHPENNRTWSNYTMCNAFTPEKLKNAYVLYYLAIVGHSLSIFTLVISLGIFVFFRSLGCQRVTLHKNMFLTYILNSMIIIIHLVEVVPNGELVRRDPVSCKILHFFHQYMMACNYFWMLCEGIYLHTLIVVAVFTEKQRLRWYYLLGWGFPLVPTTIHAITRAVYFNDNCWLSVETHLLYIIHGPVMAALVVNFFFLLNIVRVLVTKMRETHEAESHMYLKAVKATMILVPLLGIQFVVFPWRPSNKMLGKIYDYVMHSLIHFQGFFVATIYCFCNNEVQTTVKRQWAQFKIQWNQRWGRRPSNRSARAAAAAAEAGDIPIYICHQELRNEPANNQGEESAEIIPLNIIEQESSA
Method in brief: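 Read-out: CRE-driven luciferase luminescence, single photon counting, after 30 min at room temperature with LucLite. BHK cells expressed calcitonin receptor alone or with RAMP-3 (amylin 3(a)). Cells were stimulated 3 h at 37° C in DMEM, 10% FBS, 10 mM Hepes, pH 7.4.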

Row | Plasma calcium red (%) 0-12 h (maximal) (Male Wistar rats; 10 nmol/kg) | Plasma calcium red (%) 0-12 h (maximal) (Male Wistar rats; 30 nmol/kg) | EC50 ([1]; read-out: hCTR funct. EC50) | SMILES | Food intake red (%) 0-24 h (Male Sprague-Dawley rats) | Food intake red (%) 24-48 h (Male Sprague-Dawley rats) | food intake monitored over 48 hours (Male Sprague-Dawley rats; single subcutaneous administration, versus vehicle) | suppression of plasma calcium level relative to vehicle (Male Wistar rats) | EC50 [1]
1 | 3% | 11% | – | CC[C@H](C)[C@H](NC(=O)[C@H](C)NC(=O)CNC(=O)[C@H](Cc1ccccc1)NC(=O)[C@H](CC(N)=O)NC(=O)[C@@H]1CCCN1C(=O)[C@H](CO)NC(=O)[C@H](CO)NC(=O)[C@H](Cc1c[nH]cn1)NC(=O)[C@H](CCCNC(=N)N)NC(=O)[C@H](CC(C)C)NC(=O)[C@H](Cc1ccccc1)NC(=O)[C@H](CCC(=O)O)NC(=O)[C@H](C)NC(=O)[C@H](CC(C)C)NC(=O)[C@H](CCCNC(=N)N)NC(=O)[C@H](CCC(N)=O)NC(=O)[C@@H](NC(=O)[C@H](C)NC(=O)[C@@H]1CSSC[C@H](NC(=O)[C@@H](N)CCCCNC(=O)CC[C@H](NC(=O)CC[C@H](NC(=O)CCCCCCCCCCCCCCCCCCC(=O)O)C(=O)O)C(=O)O)C(=O)N[C@@H](CC(N)=O)C(=O)N[C@@H]([C@@H](C)O)C(=O)N[C@@H](C)C(=O)N[C@@H]([C@@H](C)O)C(=O)N1)[C@@H](C)O)C(=O)N1CCC[C@H]1C(=O)N[C@@H](CO)C(=O)N[C@@H](CO)C(=O)N[C@H](C(=O)N[C@@H](CC(N)=O)C(=O)N[C@H](C(=O)NCC(=O)N1CCC[C@H]1C(=O)N[C@@H](Cc1c[nH]cn1)C(=O)N[C@H](C(=O)N[C@@H](Cc1ccc(O)cc1)C(N)=O)[C@@H](C)O)C(C)C)[C@@H](C)O [Example 124] (H-K([γGlu-γGlu-C20 diacid])CNTATCATQRLAEFLRHSSPNFGAIPSSTNVGPHTY-NH2; disulfide 2-7 (inferred)) | 73% | 38% | – | – | –
2 | – | 9% | – | CC[C@H](C)[C@H](NC(=O)[C@H](C)NC(=O)CNC(=O)[C@H](Cc1ccccc1)NC(=O)[C@H](CC(N)=O)NC(=O)[C@@H]1CCCN1C(=O)[C@H](CO)NC(=O)[C@H](CO)NC(=O)[C@H](Cc1c[nH]cn1)NC(=O)[C@H](CCCNC(=N)N)NC(=O)[C@H](CC(C)C)NC(=O)[C@H](Cc1ccccc1)NC(=O)[C@H](CCC(=O)O)NC(=O)[C@H](C)NC(=O)[C@H](CC(C)C)NC(=O)[C@H](CCCNC(=N)N)NC(=O)[C@H](CCC(N)=O)NC(=O)[C@@H](NC(=O)[C@H](C)NC(=O)[C@@H]1CSSC[C@H](NC(=O)[C@@H](N)CCCCNC(=O)CC[C@H](NC(=O)CCCCCCCCCCCCCCCCCCC(=O)O)C(=O)O)C(=O)N[C@@H](CC(N)=O)C(=O)N[C@@H]([C@@H](C)O)C(=O)N[C@@H](C)C(=O)N[C@@H]([C@@H](C)O)C(=O)N1)[C@@H](C)O)C(=O)N1CCC[C@H]1C(=O)N[C@@H](CO)C(=O)N[C@@H](CO)C(=O)N[C@H](C(=O)N[C@@H](CC(N)=O)C(=O)N[C@H](C(=O)NCC(=O)N1CCC[C@H]1C(=O)N[C@@H](CCCNC(=N)N)C(=O)N[C@H](C(=O)N[C@@H](Cc1ccc(O)cc1)C(N)=O)[C@@H](C)O)C(C)C)[C@@H](C)O [Example 117] (H-K([γGlu-C20 diacid])CNTATCATQRLAEFLRHSSPNFGAIPSSTNVGPRTY-NH2; disulfide 2-7; N-terminus assumed) | 61% | 4% | reduces food intake | None of the example compounds at 30 nmol/kg trigger a notable suppression of the calcium level | –
3 | – | 10% | – | CC[C@H](C)[C@H](NC(=O)[C@H](C)NC(=O)CNC(=O)[C@H](Cc1ccccc1)NC(=O)[C@H](CC(N)=O)NC(=O)[C@@H]1CCCN1C(=O)[C@H](CO)NC(=O)[C@H](CO)NC(=O)[C@H](Cc1c[nH]cn1)NC(=O)[C@H](CCCNC(=N)N)NC(=O)[C@H](CC(C)C)NC(=O)[C@H](Cc1ccccc1)NC(=O)[C@H](CCC(=O)O)NC(=O)[C@H](C)NC(=O)[C@H](CC(C)C)NC(=O)[C@H](CCCNC(=N)N)NC(=O)[C@H](CCC(N)=O)NC(=O)[C@@H](NC(=O)[C@H](C)NC(=O)[C@@H]1CSSC[C@H](NC(=O)[C@@H](N)CCCCNC(=O)CC[C@H](NC(=O)CCCCCCCCCCCCCCCCCCC(=O)O)C(=O)O)C(=O)N[C@@H](CC(N)=O)C(=O)N[C@@H]([C@@H](C)O)C(=O)N[C@@H](C)C(=O)N[C@@H]([C@@H](C)O)C(=O)N1)[C@@H](C)O)C(=O)N1CCC[C@H]1C(=O)N[C@@H](CO)C(=O)N[C@@H](CO)C(=O)N[C@H](C(=O)N[C@@H](CC(N)=O)C(=O)N[C@H](C(=O)NCC(=O)N[C@@H](CO)C(=O)N[C@@H](CCCNC(=N)N)C(=O)N[C@H](C(=O)N[C@@H](Cc1ccc(O)cc1)C(N)=O)[C@@H](C)O)C(C)C)[C@@H](C)O [Example 51] (H-K([γGlu-C20 diacid])CNTATCATQRLAEFLRHSSPNFGAIPSSTNVGSRTY-NH2; disulfide 2-7 (inferred); N-terminus assumed) | 52% | 30% | – | None of the example compounds at 30 nmol/kg trigger a notable suppression of the calcium level | –
4 | – | – | 3.12 nM | CC[C@H](C)[C@H](NC(=O)[C@H](C)NC(=O)CNC(=O)[C@H](Cc1ccccc1)NC(=O)[C@H](CC(N)=O)NC(=O)[C@@H]1CCCN1C(=O)[C@H](CO)NC(=O)[C@H](CO)NC(=O)[C@H](Cc1c[nH]cn1)NC(=O)[C@H](CCCNC(=N)N)NC(=O)[C@H](CC(C)C)NC(=O)[C@H](Cc1ccccc1)NC(=O)[C@H](CC(N)=O)NC(=O)[C@H](C)NC(=O)[C@H](CC(C)C)NC(=O)[C@H](CCCNC(=N)N)NC(=O)[C@H](CCC(N)=O)NC(=O)[C@@H](NC(=O)[C@H](C)NC(=O)[C@@H]1CSSC[C@H](NC(=O)[C@@H](N)CCCCNC(=O)COCCOCCNC(=O)CC[C@H](NC(=O)CCCCCCCCCCCCCCCCCCC(=O)O)C(=O)O)C(=O)N[C@@H](CC(N)=O)C(=O)N[C@@H]([C@@H](C)O)C(=O)N[C@@H](C)C(=O)N[C@@H]([C@@H](C)O)C(=O)N1)[C@@H](C)O)C(=O)N1CCC[C@H]1C(=O)N[C@@H](CO)C(=O)N[C@@H](CO)C(=O)N[C@H](C(=O)N1CCC[C@H]1C(=O)N[C@H](C(=O)NCC(=O)N[C@@H](CO)C(=O)N[C@@H](Cc1c[nH]cn1)C(=O)N[C@H](C(=O)N[C@@H](Cc1ccc(O)cc1)C(N)=O)[C@@H](C)O)C(C)C)[C@@H](C)O [Example 57] (H-K([AEEA-γGlu-C20 diacid])CNTATCATQRLANFLRHSSPNFGAIPSSTPVGSHTY-NH2; disulfide 2-7; N-terminus assumed) | – | – | – | – | –
5 | – | – | – | CC[C@H](C)[C@H](NC(=O)[C@H](C)NC(=O)CNC(=O)[C@H](Cc1ccccc1)NC(=O)[C@H](CC(N)=O)NC(=O)[C@@H]1CCCN1C(=O)[C@H](CO)NC(=O)[C@H](CO)NC(=O)[C@H](Cc1c[nH]cn1)NC(=O)[C@H](CCCNC(=N)N)NC(=O)[C@H](CC(C)C)NC(=O)[C@H](Cc1ccccc1)NC(=O)[C@H](CCCCN)NC(=O)[C@H](C)NC(=O)[C@H](CC(C)C)NC(=O)[C@H](CCCNC(=N)N)NC(=O)[C@H](CCC(N)=O)NC(=O)[C@@H](NC(=O)[C@H](C)NC(=O)[C@@H]1CSSC[C@H](NC(=O)[C@@H](N)CCCCNC(=O)COCCOCCNC(=O)CC[C@H](NC(=O)CCCCCCCCCCCCCCCCCCC(=O)O)C(=O)O)C(=O)N[C@@H](CC(N)=O)C(=O)N[C@@H]([C@@H](C)O)C(=O)N[C@@H](C)C(=O)N[C@@H]([C@@H](C)O)C(=O)N1)[C@@H](C)O)C(=O)N1CCC[C@H]1C(=O)N[C@@H](CO)C(=O)N[C@@H](CO)C(=O)N[C@H](C(=O)N1CCC[C@H]1C(=O)N[C@H](C(=O)NCC(=O)N[C@@H](CO)C(=O)N[C@@H](CC(N)=O)C(=O)N[C@H](C(=O)N[C@@H](Cc1ccc(O)cc1)C(N)=O)[C@@H](C)O)C(C)C)[C@@H](C)O [Example 74] (H-K([AEEA-γGlu-C20 diacid])CNTATCATQRLAKFLRHSSPNFGAIPSSTPVGSNTY-NH2; disulfide 2-7; N-terminus assumed) | – | – | – | – | 37.5 nM
